In experiment [1] the test system is FOXP3-6His (native FOXP3, 1-421). Kind of experiment: Surface plasmon resonance, peptide binding to FOXP3-coated chip. To be noted: FOXP3 coated on chip; mutants compared with original P60. On the procedure: Using truncated versions of FOXP3, we attempted to identify the FOXP3 domain interacting with peptide P60, described previously by or group as a FOXP3 inhibitory peptide. Thus, besides native FOXP3 we prepared the deletion mutants FOXP3 (1-331) (lacking the C-terminus of FOXP3), FOXP3 (177-421) (lacking the N-terminus) and FOXP3 (1-177) (encompassing only the N-terminus of FOXP3) (Figure 1A). They were coated on a chip for SPR experiments.
Screening of peptide binding to FOXP3 was performed by surface plasmon resonance (SPR) using ProteOn XPR36 (Bio-Rad, Hercules CA, USA) optical biosensor. Recombinant protein FOXP3-6His and the indicated truncated versions of FOXP3 were produced and purified from E-coli and immobilized covalently onto a GLM sensor chip (Bio-Rad) using sulfo-NHS and EDC (Bio-Rad) coupling reagents. After protein immobilization, chip surface was treated with ethanolamine to deactivate the excess of reactive esters. Individual peptide solutions (1–20 μM) were injected by triplicate in running buffer (Phosphate buffered saline, 0.005% (v/v) Tween 20, pH 7.4) at a flow of 30 μl/min. The interspot signal (obtained in the chip surface not immobilized with protein) was used as reference.

In experiment [2] the test system is murine Treg cells. The format is cell-based, BALB/c mice. The text has this:
Results shown in Figures 1–3 correspond to cell-free assays where peptides can interact directly with its corresponding protein partner. However, FOXP3 binding peptides need to enter into the cell in order to inhibit FOXP3 functions. Once we identified some mutants with higher capacity to bind FOXP3, we studied their capacity to inhibit the suppressor activity of natural Tregs in vitro. Thus, we activated effector T cells with anti-CD3 monoclonal antibody in the presence of Tregs, and analyzed the capacity of each peptide to restore T cell proliferation inhibited by Treg cells. […] Indeed, when results from the point-variant screening are represented as a heat map, it is clear that introduction of an alanine at positions 2, 5 and 11 improved activity of the original P60, whereas alanine mutations at positions 1, 7, 8, 9, 10 and 12 are detrimental (Figure 4C).
Isolation of murine CD4^+CD25^+, and CD4^+CD25^− T-cells was performed from murine spleen cells by using murine regulatory T-cell isolation kit (Miltenyi Biotec, Bergisch Gladbach, Germany) according to manufacturer's instructions. The purity of the resulting T-cell populations was confirmed to be > 95% by flow cytometry.
Inhibition of murine T regulatory cell function was measured in an in vitro assay of T-cell stimulation. CD25+ depleted spleen cells (10^5 cells/well) from BALB/c mice were stimulated in vitro with 2, 5 μg/ml of anti-mouse CD3 antibody (Pharmingen) in the presence/absence of purified Treg cells (10^4 cells/well). T-cell proliferation was measured 3 days later as previously described.

Experiment [3] deals with T1, FOXP3/FOXP3 homodimerization (GST-FOXP3 and FOXP3-His) (Homo sapiens, UniProt Q9BZS1).
T1 construct: made in house; host or cells: E. coli
T1 sequence (Q9BZS1 1-421): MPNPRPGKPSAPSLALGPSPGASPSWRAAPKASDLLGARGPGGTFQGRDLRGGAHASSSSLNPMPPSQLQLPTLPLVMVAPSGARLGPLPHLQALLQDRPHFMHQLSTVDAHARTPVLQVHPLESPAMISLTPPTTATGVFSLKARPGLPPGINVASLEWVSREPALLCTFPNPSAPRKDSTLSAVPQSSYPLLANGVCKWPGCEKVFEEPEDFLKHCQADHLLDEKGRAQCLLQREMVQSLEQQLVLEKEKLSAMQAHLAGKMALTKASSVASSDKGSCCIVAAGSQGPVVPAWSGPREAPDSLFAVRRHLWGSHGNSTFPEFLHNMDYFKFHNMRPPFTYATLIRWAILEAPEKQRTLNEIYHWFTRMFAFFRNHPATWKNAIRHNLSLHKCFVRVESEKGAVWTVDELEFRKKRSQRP
Kind of experiment: AlphaScreen FOXP3 homodimerization assay. The format is biochemical. To be noted: GST-FOXP3 40 nM, FOXP3-His 300 nM. The text has this: AML1 is required for IL-2 and IFN-γ gene expression in conventional CD4+ T cells and its interaction with FOXP3 is needed for the immunosuppressive activity of Tregs. On the other hand, it has been described that the leucine zipper region is necessary and sufficient to mediate FOXP3 homo-dimerization, which is required for its function as a transcriptional regulator [13, 15, 20]. Thus, since P60 binds to this FOXP3 intermediate region, we analyzed if it could act as a decoy molecule to inhibit FOXP3 homodimerization or the FOXP3-AML1 heterodimerization. The capacity of FOXP3 to homodimerize was measured using the […] assay platform AlphaScreen™ (Perkin Elmer). Previous protein-cross titration experiment using different concentrations of FOXP3-6His (from 1000 to 0 nM) and GST-FOXP3 (from 300 to 0 nM) allowed us to define the optimal protein concentrations to analyze FOXP3 homodimerization (Figure 2A). […] We also tested if GST tagged FOXP3 was able to interact with AML1 protein tagged with 6 His at the N-terminus. As shown in the cross titration experiments in Figure 2C, a specific FOXP3-AML1 heterodimerization was visualized as an increase in the AlphaScreen signal.
FOXP3/AML1 heterodimerization, as well as FOXP3/FOXP3 homodimerization were analyzed by Alphascreen technology according to the manufacturer's instructions (Perkin Elmer, Benelux) as previously described.

Experiment [4] concerns CT26 tumor cells. The conditions noted are these: AH1 in IFA, P60 50 nanomol/mice/day i.p. day 0 to day 9, 5 × 10^5 cells; cited from earlier work.

For H-RDFQSFRKMWPFFAM-OH [P60], in experiment [1], the “FOXP3 binding capacity by SPR (in words)” value is “bound with high affinity”. Moreover, the IC50 (as a rule, the point on the concentration scale where inhibition reaches its midpoint) in experiment [2] is 38.3 µM. In experiment [3], the “Inhibition of FOXP3 homodimerization (in words)” value is reported as “able to impair FOXP3 dimerization in a dose dependent manner”. Besides, the “Protection against CT26 tumor challenge (in words)” value in experiment [4] is listed as “protected mice from CT26 tumor challenge”.

The record behind these values is paper PMC5641083, “Blockage of FOXP3 transcription factor dimerization and FOXP3/AML1 interaction inhibits T regulatory cell activity: sequence optimization of a peptide inhibitor” (Oncotarget, 2017).
